From patent US10011586B2, “Heterocyclic compound, method for preparing the same, and pharmaceutical composition comprising the same” (Daewoong Pharmaceutical Co., Ltd., priority 2015, dated 2018)
Like-named read-outs stand apart in the source and are kept apart here.

Experiments:
[1] = target: T1, PRS enzyme (Homo sapiens, UniProt P07814); assay: PRS enzyme activity inhibition experiment; format: biochemical
T1 construct: the portion corresponding to PRS in cDNA of EPRS was subcloned; made in house
T1 sequence (P07814 1007-1512 limits assumed): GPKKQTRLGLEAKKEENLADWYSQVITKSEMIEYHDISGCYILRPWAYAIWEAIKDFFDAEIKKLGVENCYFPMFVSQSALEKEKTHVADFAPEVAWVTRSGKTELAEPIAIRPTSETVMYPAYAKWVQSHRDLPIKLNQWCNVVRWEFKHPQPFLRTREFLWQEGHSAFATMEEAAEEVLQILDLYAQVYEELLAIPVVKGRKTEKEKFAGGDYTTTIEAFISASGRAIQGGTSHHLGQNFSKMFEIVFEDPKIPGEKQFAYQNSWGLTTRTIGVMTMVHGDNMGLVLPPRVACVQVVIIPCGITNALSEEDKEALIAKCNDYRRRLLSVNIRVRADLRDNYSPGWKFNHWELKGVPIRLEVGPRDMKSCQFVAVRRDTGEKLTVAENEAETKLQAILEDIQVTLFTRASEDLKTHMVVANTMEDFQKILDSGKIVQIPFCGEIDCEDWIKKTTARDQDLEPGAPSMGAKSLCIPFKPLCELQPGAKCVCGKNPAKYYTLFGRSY
Protocol: Specifically, the portion corresponding to PRS in cDNA of EPRS was subcloned, and the obtained high-purity PRS protein was purified and used in the experiment. The compounds (1 μM) prepared in Examples were added into the reaction buffer (20 mM KPO4 (pH 7.4), 6 mM MgAc, 5 mM ATP, […] tRNA, 0.5 mM DTT, […][^3H]proline (1 mCi/mL)) and allowed to react at 37° C. for 5 to 10 minutes. The reaction was terminated with 3M paper that was in advance dried by addition of 5% TCA. The radioactivity was measured using a liquid scintillation counter.
% Inhibition and IC50 values of the respective compounds were calculated and analyzed using Microsoft Excel or Sigma Plot 8.0. In Table 1, the results are divided into A, B and C according to the range of IC50.

[2] = system: NCI-H460 cells; assay: Cancer cell growth inhibition experiment (MTT assay); format: cell-based; details: Homo sapiens, lung cancer cell line, compounds 48 hours, cell viability by MTT assay
Protocol: NCl-H460 cells, lung cancer cell lines, were cultured in 5% CO2, 37° C. incubator using a flask for 75 cm^2 tissue culture. 96-well plates were used for the evaluation. These were prepared by differently applying at concentrations in the range of 6,000 to 12,000 cells/well according to the growth rate of the cell lines. The medium containing 5% FBS were dispensed in 200 μL/well and used. The medium were cultured for 24 hours. After confirming the cell status and dispensing form of a 96-well plate under a microscope, they were used for subsequent experiments. The compounds were evaluated at concentrations of 100, 30, 10, 3, 1, 0.3, 0.03, 0.01 μM. After removing the existing medium, the compounds with various concentrations were treated in an amount of 200 μL/well. The compounds-treated plates were further cultured for 48 hours, and the cell viabilities were measured by MTT assay to calculate IC50 values.
% Inhibition and IC50 values of the respective compounds were calculated and analyzed using Sigma Plot 8.0. In Table 2, the results are divided into A, B and C according to the range of IC50. The case where the derived IC50 is 3 μM or less is represented by “A”, the case where the IC50 is 3 to 10 μM is represented by “B”, and the case where the IC50 is 10 μM or higher is represented by “C”.

[3] = purified PRS protein subcloned from EPRS cDNA, [3H]proline, 37° C., 5 to 10 minutes, liquid scintillation counter, read-out: PRS IC50

## O=C(C[C@H]1NCCC[C@@H]1O)Cn1cnc2ccc(-c3ccc(F)c(Cl)c3)cc21 [Example 33, 1-(6-(3-chloro-4-fluorophenyl)-1H-benzo[d]imidazol-1-yl)-3-((2R,3S)-3-hydroxypiperidin-2-yl)propan-2-one]
[1]; [3]
  IC50: < 100 nM
[2]
  IC50: 3000 to 10000 nM

## COc1cc(Cl)cc(-c2ccc3ncn(CC(=O)C[C@H]4NCCC[C@@H]4O)c3c2)c1 [Example 35, 1-(6-(3-chloro-5-methoxyphenyl)-1H-benzo[d]imidazol-1-yl)-3-((2R,3S)-3-hydroxypiperidin-2-yl)propan-2-one]
[1]; [3]
  IC50: < 100 nM
[2]
  IC50: 3000 to 10000 nM

## OC(C[C@H]1NCCC[C@@H]1O)Cn1cnc2ccc(-c3cccc(Cl)c3)cc21 (stereo partly drawn) [Example 63, (2R,3S)-2-(3-(6-(3-chlorophenyl)-1H-benzo[d]imidazol-1-yl)-2-hydroxypropyl)piperidin-3-ol]
[1]; [3]
  IC50: 100 to 500 nM
[2]
  IC50: ≥ 10000 nM

## N#Cc1cc(Cl)cc(-c2ccc3ncn(CC(=O)C[C@H]4NCCC[C@@H]4O)c3c2)c1 [Example 36, 3-chloro-5-(1-(3-((2R,3S)-3-hydroxypiperidin-2-yl)-2-oxopropyl)-1H-benzo[d]imidazol-6-yl)benzonitrile]
[1]; [3]
  IC50: < 100 nM
[2]
  IC50: 3000 to 10000 nM

## O=C(C[C@H]1NCCC[C@@H]1O)Cn1cnc2ccc(-c3ccc(=O)[nH]c3)cc21 [Example 40, 5-(1-(3-((2R,3S)-3-hydroxypiperidin-2-yl)-2-oxopropyl)-1H-benzo[d]imidazol-6-yl)pyridin-2(1H)-one]
[1]; [3]
  IC50: > 500 nM
[2]
  IC50: ≥ 10000 nM

## O=C(C[C@H]1NCCC[C@@H]1O)Cn1cnc2ccc(-c3cc[nH]n3)cc21 [Example 38, 1-(6-(1H-pyrazol-3-yl)-1H-benzo[d]imidazol-1-yl)-3-((2R,3S)-3-hydroxypiperidin-2-yl)propan-2-one]
[1]; [3]
  IC50: 100 to 500 nM
[2]
  IC50: ≥ 10000 nM

## Cc1c(-c2ccc(Cl)cc2)ccc2c1ncn2CC(=O)C[C@H]1NCCC[C@@H]1O [Example 19, 1-(5-(4-chlorophenyl)-4-methyl-1H-benzo[d]imidazol-1-yl)-3-((2R,3S)-3-hydroxypiperidin-2-yl)propan-2-one]
[1]; [3]
  IC50: 100 to 500 nM
[2]
  IC50: ≥ 10000 nM

## O=C(C[C@H]1NCCC[C@@H]1O)Cn1cnc2cccc(-c3ccc(C(F)(F)F)cc3)c21 [Example 54, 1-((2R,3S)-3-hydroxypiperidin-2-yl)-3-(7-(4-(trifluoromethyl)phenyl)-1H-benzo[d]imidazol-1-yl)propan-2-one]
[1]; [3]
  IC50: 100 to 500 nM
[2]
  IC50: ≥ 10000 nM

## O=C(C[C@H]1NCCC[C@@H]1O)Cn1cnc2ccc(-c3cccc(C(F)(F)F)c3)nc21 [Example 47, 1-((2R,3S)-3-hydroxypiperidin-2-yl)-3-(5-(3-(trifluoromethyl)phenyl)-3H-imidazo[4,5-b]pyridin-3-yl)propan-2-one]
[1]; [3]
  IC50: < 100 nM
[2]
  IC50: ≤ 3000 nM

## O=C(C[C@H]1NCCC[C@@H]1O)Cn1cnc2ccc(-c3cccc(F)c3)nc21 [Example 44, 1-(5-(3-fluorophenyl)-3H-imidazo[4,5-b]pyridin-3-yl)-3-((2R,3S)-3-hydroxypiperidin-2-yl)propan-2-one]
[1]; [3]
  IC50: < 100 nM
[2]
  IC50: ≤ 3000 nM

## Cc1c(-c2cscn2)ccc2c1ncn2CC(=O)C[C@H]1NCCC[C@@H]1O [Example 23, 1-((2R,3S)-3-hydroxypiperidin-2-yl)-3-(4-methyl-5-(thiazol-4-yl)-1H-benzo[d]imidazol-1-yl)propan-2-one]
[1]; [3]
  IC50: < 100 nM
[2]
  IC50: ≥ 10000 nM

## O=C(C[C@H]1NCCC[C@@H]1O)Cn1cnc2ncc(-c3cccc(Cl)c3)cc21 [Example 41, 1-(6-(3-chlorophenyl)-1H-imidazo[4,5-b]pyridin-1-yl)-3-((2R,3S)-3-hydroxypiperidin-2-yl)propan-2-one]
[1]; [3]
  IC50: < 100 nM
[2]
  IC50: ≥ 10000 nM

## Cc1c(-c2ccccc2Cl)ccc2c1ncn2CC(=O)C[C@H]1NCCC[C@@H]1O [Example 18, 1-(5-(2-chlorophenyl)-4-methyl-1H-benzo[d]imidazol-1-yl)-3-((2R,3S)-3-hydroxypiperidin-2-yl)propan-2-one]
[1]; [3]
  IC50: > 500 nM
[2]
  IC50: ≥ 10000 nM

## O=C(C[C@H]1NCCC[C@@H]1O)Cn1cnc2cc(-c3cccc(Cl)c3)cnc21 [Example 14, 1-(6-(3-chlorophenyl)-3H-imidazo[4,5-b]pyridin-3-yl)-3-((2R,3S)-3-hydroxypiperidin-2-yl)propan-2-one]
[1]; [3]
  IC50: 100 to 500 nM
[2]
  IC50: ≥ 10000 nM

## O=C(C[C@H]1NCCC[C@@H]1O)Cn1c(CO)nc2cc(-c3cccc(F)c3)ccc21 [Example 56, 1-(5-(3-fluorophenyl)-2-(hydroxymethyl)-1H-benzo[d]imidazol-1-yl)-3-((2R,3S)-3-hydroxypiperidin-2-yl)propan-2-one]
[1]; [3]
  IC50: > 500 nM
[2]
  IC50: ≥ 10000 nM

## Cc1cccc(-c2ccc3ncn(CC(=O)C[C@H]4NCCC[C@@H]4O)c3c2)c1 [Example 30, 1-((2R,3S)-3-hydroxypiperidin-2-yl)-3-(6-(m-tolyl)-1H-benzo[d]imidazol-1-yl)propan-2-one]
[1]; [3]
  IC50: < 100 nM
[2]
  IC50: 3000 to 10000 nM

## COc1cccc(-c2ccc3c(ncn3CC(=O)C[C@H]3NCCC[C@@H]3O)c2C)c1 [Example 22, 1-((2R,3S)-3-hydroxypiperidin-2-yl)-3-(5-(3-methoxyphenyl)-4-methyl-1H-benzo[d]imidazol-1-yl)propan-2-one]
[1]; [3]
  IC50: > 500 nM
[2]
  IC50: ≥ 10000 nM

## O=C(C[C@H]1NCCC[C@@H]1O)Cn1c(CO)nc2ccc(-c3ccc(F)cc3)cc21 [Example 60, 1-(6-(4-fluorophenyl)-2-(hydroxymethyl)-1H-benzo[d]imidazol-1-yl)-3-((2R,3S)-3-hydroxypiperidin-2-yl)propan-2-one]
[1]; [3]
  IC50: < 100 nM
[2]
  IC50: ≥ 10000 nM

## Cc1c(-c2cccc(Cl)c2)ccc2c1ncn2CC(=O)C[C@H]1NCCC[C@@H]1O [Example 17, 1-(5-(3-chlorophenyl)-4-methyl-1H-benzo[d]imidazol-1-yl)-3-((2R,3S)-3-hydroxypiperidin-2-yl)propan-2-one]
[1]; [3]
  IC50: 100 to 500 nM
[2]
  IC50: ≥ 10000 nM

## O=C(C[C@H]1NCCC[C@@H]1O)Cn1cnc2ccc(-c3ccc(F)cc3)nc21 [Example 45, 1-(5-(4-fluorophenyl)-3H-imidazo[4,5-b]pyridin-3-yl)-3-((2R,3S)-3-hydroxypiperidin-2-yl)propan-2-one]
[1]; [3]
  IC50: < 100 nM
[2]
  IC50: 3000 to 10000 nM

## O=C(C[C@H]1NCCC[C@@H]1O)Cn1cnc2ccc(-c3ccccc3)cc21 [Example 24, 1-((2R,3S)-3-hydroxypiperidin-2-yl)-3-(6-phenyl-1H-benzo[d]imidazol-1-yl)propan-2-one]
[1]; [3]
  IC50: < 100 nM
[2]
  IC50: 3000 to 10000 nM

## O=C(C[C@H]1NCCC[C@@H]1O)Cn1cnc2cccc(-c3ccc(Cl)cc3)c21 [Example 51, 1-(7-(4-chlorophenyl)-1H-benzo[d]imidazol-1-yl)-3-((2R,3S)-3-hydroxypiperidin-2-yl)propan-2-one]
[1]
  IC50: 100 to 500 nM
[2]
  IC50: ≥ 10000 nM

## O=C(C[C@H]1NCCC[C@@H]1O)Cn1cnc2ccc(-c3cc(F)cc(Cl)c3)cc21 [Example 32, 1-(6-(3-chloro-5-fluorophenyl)-1H-benzo[d]imidazol-1-yl)-3-((2R,3S)-3-hydroxypiperidin-2-yl)propan-2-one]
[1]; [3]
  IC50: < 100 nM
[2]
  IC50: ≤ 3000 nM

## Cc1c(-c2cccc(C(F)(F)F)c2)ccc2c1ncn2CC(=O)C[C@H]1NCCC[C@@H]1O [Example 21, 1-((2R,3S)-3-hydroxypiperidin-2-yl)-3-(4-methyl-5-(3-(trifluoromethyl)phenyl)-1H-benzo[d]imidazol-1-yl)propan-2-one]
[1]; [3]
  IC50: 100 to 500 nM
[2]
  IC50: ≥ 10000 nM
